Source: publication PMC7015555, “Transthyretin-Binding Activity of Complex Mixtures Representing the Composition of Thyroid-Hormone Disrupting Contaminants in House Dust and Human Serum” (Environmental Health Perspectives, 2020)
Like-named read-outs stand apart in the source and are kept apart here.

Experiments:
TTR [1] = molecular target: TTR (Homo sapiens, UniProt P02766); assay: FITC-T4 TTR competitive binding assay; settings: for REP (relative potency compared to T4): IC20 of T4 / IC20 of compound (Equation 14); for T4EQ concentration (nmol/g dust): reported concentration of the compound in SRM2585 dust x REP; for maximum competitive potency at high test concentrations: Figure 1C; for inhibition of FITC-T4-TTR-binding: present study (Figure 1C)
TTR [2] = settings: cited from earlier work; for IC50: read-out: IC50 (M), Radioactive Ligand Binding Assay data from the literature; for REP, Radioactive Ligand Binding Assay data from the literature: relative effect potency; for T4-TTR binding inhibition in the RLBA: at 10 µM (highest concentration)
[3] = 20% inhibition of FITC-T4 binding to TTR, 30 nM TTR, 110 nM FITC-T4, 2 h at 4°C, pH 8.0
[4] = individual compounds, 30 nM TTR, 110 nM FITC-T4, 2 h at 4°C, pH 8.0, — = 50% inhibition level not reached (footnote g), read-out: IC50
[5] = inhibitor-TTR dissociation constant converted from IC20 (Equation 4), 4°C, read-out: Ki

| SMILES | Ki (TTR [1]) [nM] | REP (relative potency compared to T4) (TTR [1]) | IC20 (TTR [1]; pH 8) [nM] | IC50 (TTR [1]; read-out: IC50) [nM] | IC50 (TTR [2]; ref Weiss et al. 2015) [M] | REP, Radioactive Ligand Binding Assay data from the literature (TTR [2]; ref Weiss et al. 2015) | T4EQ concentration (nmol/g dust) (TTR [1]) | IC20 (TTR [1]; [3]) [nM] | IC50 (TTR [1]; [4]) [nM] | Ki (TTR [1]; [5]) [nM] | also measured |
| --- | --- | --- | --- | --- | --- | --- | --- | --- | --- | --- | --- |
| Oc1c(Br)cc(Br)cc1Br [2,4,6-TBP, 2,4,6-tribromophenol] | 5.5 | 2.4 | 8.9 | 29 | 4.8e-09 | 10 |  |  |  |  |  |
| CCCCCCCCCc1ccc(O)cc1 [4-Nonylphenol, 4-nonylphenol] | 3900 | 0.012 | 1800 | 16000 | 1e-05 | 0.008 | 0.946 |  |  |  |  |
| Oc1c(Cl)cc(-c2ccc(Cl)c(Cl)c2)c(Cl)c1Cl [4-OH-CB-107, 4-OH-2,3,3ʹ,4ʹ,5-pentachlorobiphenyl] |  | 0.63 |  |  | 2.26e-08 | 3.5 |  | 34 | 68 | 59 |  |
| Oc1c(Cl)c(Cl)c(-c2cc(Cl)c(Cl)cc2Cl)c(Cl)c1Cl [4-OH-CB-187, 4-OH-2,2ʹ,3,4ʹ,5,5ʹ,6-heptachlorobiphenyl] |  | 2.6 |  |  | 1.98e-08 | 4 |  | 8.2 | 17 | 4 |  |
| Oc1cc(Oc2ccc(Br)cc2Br)c(Br)cc1Br [5-OH-BDE-47, 5-OH-2,2ʹ,4,4ʹ-tetrabromodiphenyl ether] |  | 1.5 |  |  | 2.5e-08 | 3 |  | 14 | 27 | 16 |  |
| Oc1cc(Br)cc(Br)c1Oc1ccc(Br)cc1Br [6-OH-BDE-47, 6-OH-2,2ʹ,4,4ʹ-tetrabromodiphenyl ether] |  | 0.68 |  |  | 1.5e-07 | 0.39 |  | 31 | 98 | 54 |  |
| Oc1cc(Br)cc(Br)c1Oc1cc(Br)c(Br)cc1Br [6ʹ-OH-BDE-99, 6ʹ-OH-2,2ʹ,4,4ʹ,5-pentabromodiphenyl ether] |  | 2.5 |  |  |  |  |  | 8.4 | 20 | 4.5 | REP, Radioactive Ligand Binding Assay data from the literature (TTR [2]; ref Marchesini et al. 2008): 0.2 |
| Brc1ccc(Oc2ccc(Br)cc2Br)c(Br)c1 [BDE-47, 2,2ʹ,4,4ʹ-tetrabromodiphenyl ether] | 440 | 0.10 | 210 | 1300 | 3.6e-05 | 0.0025 | 0.103 |  |  |  |  |
| Brc1ccc(Oc2cc(Br)c(Br)cc2Br)c(Br)c1 [BDE-99, 2,2ʹ,4,4ʹ,5-pentabromodiphenyl ether] | 150 | 0.29 | 73 |  |  |  | 0.458 |  |  |  | maximum competitive potency at high test concentrations (TTR [1]): leveled off before reaching complete inhibition; inhibition of FITC-T4-TTR-binding (TTR [1]): > 20%; T4-TTR binding inhibition in the RLBA (TTR [2]; ref Hamers et al. 2006): <20% inhibition at 10 µM (Hamers et al. 2006) |
| Clc1ccc(-c2cc(Cl)c(Cl)cc2Cl)cc1Cl [CB-118, 2,3ʹ,4,4ʹ,5-pentachlorobiphenyl] |  | 0.14 | 160 | 560 |  |  | 0.011 |  |  | 320 | inhibition of FITC-T4-TTR-binding (TTR [1]): > 20%; T4-TTR binding inhibition in the RLBA (TTR [2]; ref Hamers et al. 2011): <20% inhibition at 10 µM (Hamers et al. 2011) |
| Clc1cc(Cl)c(-c2cc(Cl)c(Cl)cc2Cl)cc1Cl [CB-153, 2,2ʹ,4,4ʹ,5,5ʹ-hexachlorobiphenyl] | 150 | 0.27 | 77 | 180 | > 1.5e-05 | <0.0037 | 0.030 |  |  |  | maximum competitive potency at high test concentrations (TTR [1]): leveled off before reaching complete inhibition; REP, Radioactive Ligand Binding Assay data from the literature (TTR [2]; ref Hamers et al. (2011)): <0.0037; pIC50 in the RLBA (TTR [2]; –log(IC50), ref Excel Table S1): < 4.8 |
| NS(=O)(=O)C(F)(F)C(F)(F)C(F)(F)C(F)(F)C(F)(F)C(F)(F)C(F)(F)C(F)(F)F [FOSA, perfluorooctane sulfonamide] |  | 0.11 | 190 | 730 | 6.12e-06 | 0.01 | 0.002 |  |  | 400 |  |
| O=S(=O)(O)C(F)(F)C(F)(F)C(F)(F)C(F)(F)F [PFBS, perfluorobutane sulfonic acid] |  | 0.0091 |  |  | 1.95e-05 | 0.003 | 0.002 | 2300 | 9700 | 5100 |  |
| O=C(O)C(F)(F)C(F)(F)C(F)(F)C(F)(F)C(F)(F)C(F)(F)C(F)(F)C(F)(F)C(F)(F)F [PFDA, perfluorodecanoic acid] |  | 0.012 |  |  | 8.95e-06 | 0.007 | 0.001 | 1700 | 5400 |  | Ki (TTR [1]; read-out: Ki): 3700 nM |
| O=C(O)C(F)(F)C(F)(F)C(F)(F)C(F)(F)C(F)(F)C(F)(F)F [PFHpA, perfluoroheptanoic acid] | 640 | 0.071 | 300 | 1200 | 1.57e-06 | 0.039 | 0.048 |  |  |  |  |
| O=C(O)C(F)(F)C(F)(F)C(F)(F)C(F)(F)C(F)(F)F [PFHxA, perfluorohexanoic acid] |  | 0.014 |  |  | 8.22e-06 |  | 0.011 | 1600 | 5600 |  | Ki (TTR [1]; read-out: Ki): 3400 nM |
| O=S(=O)(O)C(F)(F)C(F)(F)C(F)(F)C(F)(F)C(F)(F)C(F)(F)F [PFHxS, perfluorohexane sulfonic acid] | 280 | 0.16 | 140 | 460 | 7.17e-07 | 0.085 | 0.561 |  |  |  |  |
| O=C(O)C(F)(F)C(F)(F)C(F)(F)C(F)(F)C(F)(F)C(F)(F)C(F)(F)C(F)(F)F [PFNA, perfluorononanoic acid] |  | 0.059 |  |  | 2.74e-06 | 0.022 | 0.013 | 360 | 1100 |  | Ki (TTR [1]; read-out: Ki): 770 nM |
| O=C(O)C(F)(F)C(F)(F)C(F)(F)C(F)(F)C(F)(F)C(F)(F)C(F)(F)F [PFOA, perfluorooctanoic acid] | 1100 | 0.043 | 490 | 1100 | 9.49e-07 | 0.064 | 0.060 |  |  |  |  |
| O=S(=O)(O)C(F)(F)C(F)(F)C(F)(F)C(F)(F)C(F)(F)C(F)(F)C(F)(F)C(F)(F)F [PFOS, perfluorooctane sulfonic acid] |  | 0.26 |  |  | 9.4e-07 | 0.065 | 1.201 | 82 | 250 |  | Ki (TTR [1]; read-out: Ki): 160 nM |
| O=C(O)C(F)(F)C(F)(F)C(F)(F)C(F)(F)C(F)(F)C(F)(F)C(F)(F)C(F)(F)C(F)(F)C(F)(F)F [PFUnDA, perfluoroundecanoic acid] |  | 0.021 |  |  | 2.16e-05 | 0.003 | 0.002 | 1000 | 3100 |  | Ki (TTR [1]; read-out: Ki): 2200 nM |
| Oc1c(Cl)c(Cl)c(Cl)c(Cl)c1Cl [Pentachlorophenol, pentachlorophenol] | 24 | 1.2 | 17 |  | 2.3e-07 | 1.74 |  |  |  |  | IC50 (TTR [1]): 60 nM |
| CCCOC(=O)c1ccc(O)cc1 [Propylparaben, propyl 4-hydroxybenzoate] |  | 0.0039 | 5500 | 19000 |  |  |  |  |  | 12000 | IC50 (TTR [2]; ref Zhang et al. 2015): 1.9e-05 M; REP, Radioactive Ligand Binding Assay data from the literature (TTR [2]; ref Zhang et al. 2015): 0.0038 |
| CC(C)(c1cc(Br)c(O)c(Br)c1)c1cc(Br)c(O)c(Br)c1 [TBBPA, tetrabromo-bisphenol-A] |  | 1.5 |  |  | 3.1e-08 | 1.6 | 0.586 | 14 | 34 |  | Ki (TTR [1]; read-out: Ki): 17 nM |
